Data set [1] is described as follows: End point (maximum) amount of water miscible solvent in hydrated DB. The format is physicochemical. To be noted: MV alginate, 1:1.25 alginate:water. How it is done:
Hydrated DB beads were prepared as example 1 using MV alginate. In this case, the water was used to achieve alginate within the hydrated beads to be 44.44% (w/w), which means 125 mL water and 100 g MV alginate (1:1.25 alginate:water ratio). WMS were propylene glycols (PG), glycerol, polyethylene glycol (PEG400) and absolute ethanol. Then, different amounts of volatile and non-volatile water miscible solvents (WMS) were added slowly to the hydrated beads under high shear mixing. The end point (the optimized amount of WMS) was calculated by monitoring physical properties of hydrated beads including size and hardness as described in examples 1 & 2. […] Beads then were cross-linked, washed and dried as described in example 1.
The end point (end point ratio by weight (alginate:water:WMS)) in table 14 means the maximum amount of WMS that allows to obtain acceptable bead hardness (more than 1 kg/cm^2/g beads) and acceptable size range of both wet and dry beads according to the established criteria in table 3 and 4, example 1.

The nature of data set [2]: Limonene loss post baking of pancakes (gas chromatography). The format is physicochemical. The note with it: pancakes baked at 200° C. for 15 min. Here is the method:
The amount of D-limonene was assayed pre and post baking. For this purpose, 10 ml of distilled water was added to 5 g pancakes. Then, 30 ml methanol was added and the mixture was centrifuged at 3000 rpm for 20 min for further assay by gas chromatography. The % of lost limonene post packing as the following equation and expressed as the % of lost limonene post packing (w/w): % of lost limonene post baking (w/w)=(Initial amount added before backing−Residual amount of limonene found in baked pancakes)[…] Results

As to `OCC(O)CO` [Glycerol, glycerol], in data set [1], the “Total maximum amount of WMS expressed as % w/w” value (from here on “Total maximum amount … as % w/w”) was determined as 34.78 % w/w.

With `C=C(C)[C@H]1CC=C(C)CC1` [Free limonene, (4R)-1-methyl-4-(1-methylethenyl)-cyclohexene], in data set [2] (one day), the “The % of lost limonene one day post packing (w/w), Mean” value is 89.56 % (w/w). In data set [2] (one month), the “The % of lost limonene one month post packing (w/w), Mean” value was 93.23 % (w/w).

Consider `CCO` [Ethanol, absolute ethanol], for which the “Total maximum amount … as % w/w” value in data set [1] is 25.00 % w/w.

Take `CC(O)CO` (centres unmarked) [Propylene glycols (PG), propylene glycols]: the “Total maximum amount … as % w/w” value in data set [1] stood at 36.61 % w/w.

The values are drawn from US12048320B2, “Process for preparing high density, thermostable polysaccharide beads as food additives” (DNA CATCHER, S.L, priority 2019, dated 2024).
